The values below come from PubChem BioAssay AID328 (DTP/NCI, 2004).

Values joined by “and” are separate entries in the source; they are usually repeats but may differ in a detail not shown here. Equal values may be shown once. Inconclusive results and toxic doses are left out.

In this experiment the test system is BDF1 mice, P388 leukemia ip, median survival T/C. The experiment can be described thus: NCI In Vivo Anticancer Drug Screen. Data for tumor model P388 Leukemia (intraperitoneal) in B6D2F1 (BDF1) mice. The note with it: endpoint: median survival time, higher = longer survival. The gist of the method: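 Transplantable tumour in mice; compound vs vehicle dosing; survival scored; ratio of treated to control reported.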

[1] abbreviates: dose: 6.25 mg/kg/injection, schedule: Q01DX009 (ip), vehicle: saline.
[2] abbreviates: dose: 25.0 mg/kg/injection, schedule: Q01DX009 (ip), vehicle: saline.
The mark [3] stands for this setting: dose: 25.0 mg/kg/injection, schedule: Q04DX003 (ip), vehicle: saline.
[4] abbreviates: dose: 50.0 mg/kg/injection, schedule: Q01DX009 (ip), vehicle: saline.
[5] abbreviates: dose: 50.0 mg/kg/injection, schedule: Q04DX003 (ip), vehicle: saline.
The mark [6] stands for this setting: dose: 100.0 mg/kg/injection, schedule: Q01DX009 (ip), vehicle: saline.
The mark [7] stands for this setting: dose: 100.0 mg/kg/injection, schedule: Q04DX003 (ip), vehicle: saline.
Setting [8] is: dose: 200.0 mg/kg/injection, schedule: Q04DX003 (ip), vehicle: saline.
Setting [9] is: dose: 25.0 mg/kg/injection, schedule: Q01DX009 (ip), vehicle: saline with Tween-80.
The mark [10] stands for this setting: dose: 50.0 mg/kg/injection, schedule: Q01DX009 (ip), vehicle: saline with Tween-80.
The mark [11] stands for this setting: dose: 100.0 mg/kg/injection, schedule: Q01DX009 (ip), vehicle: saline with Tween-80.
Where [12] appears, read: dose: 200.0 mg/kg/injection, schedule: Q01DX009 (ip), vehicle: saline with Tween-80.
[13] abbreviates: dose: 75.0 mg/kg/injection, schedule: Q01DX009 (ip), vehicle: saline.
[14] abbreviates: dose: 200.0 mg/kg/injection, schedule: Q01DX009 (ip), vehicle: saline.

As to `COc1ccc2[nH]c(=O)c(C)c(C)c2c1`, the T/C by setting is: (dose: 3.12 mg/kg/injection, schedule: Q01DX009 (ip), vehicle: saline) 98 % of control; under setting [1], 94 % of control; (dose: 12.5 mg/kg/injection, schedule: Q01DX009 (ip), vehicle: saline) 94 % of control; under setting [2], 92 % of control; under setting [3], 107 % of control; under setting [4], 96 % of control and 117 % of control. Further, the T/C was 118 % of control under setting [5]; 94 % of control under setting [6]; 111 % of control under setting [7]; 100 % of control under setting [8]; 115 % of control (dose: 400.0 mg/kg/injection, schedule: Q04DX003 (ip), vehicle: saline).
Consider `CCCCC(=O)OCC1OC(n2cnc3c(=S)nc[nH]c32)C(OC(=O)CCCC)C1OC(=O)CCCC` (configuration not stated), for which the T/C (dose: 12.5 mg/kg/injection, schedule: Q01DX009 (sc), vehicle: olive oil, sesame oil, peanut oil) was 100 % of control; the T/C (dose: 25.0 mg/kg/injection, schedule: Q01DX009 (sc), vehicle: olive oil, sesame oil, peanut oil) was 91 % of control; the T/C (dose: 50.0 mg/kg/injection, schedule: Q01DX009 (sc), vehicle: olive oil, sesame oil, peanut oil) was 100 % of control; the T/C (dose: 100.0 mg/kg/injection, schedule: Q01DX009 (sc), vehicle: olive oil, sesame oil, peanut oil) is 96 % of control; the T/C (dose: 100.0 mg/kg/injection, schedule: Q04DX003 (sc), vehicle: olive oil, sesame oil, peanut oil) was 108 % of control; the T/C (dose: 200.0 mg/kg/injection, schedule: Q04DX003 (sc), vehicle: olive oil, sesame oil, peanut oil) was 108 % of control. The T/C (dose: 400.0 mg/kg/injection, schedule: Q04DX003 (sc), vehicle: olive oil, sesame oil, peanut oil) is 116 % of control.
Regarding `C=Cc1c(C)c(O)cc2c1CC[C@@H]1C(C)(C)[C@H](O)[C@H](O)C[C@@]21C`, the T/C is, setting by setting: (dose: 100.0 mg/kg/injection, schedule: Q01DX009 (ip), vehicle: Klucel (hydroxypropylcellulose) (HPC)) 102 % of control; (dose: 200.0 mg/kg/injection, schedule: Q01DX009 (ip), vehicle: Klucel (hydroxypropylcellulose) (HPC)) 100 % of control; (dose: 400.0 mg/kg/injection, schedule: Q01DX009 (ip), vehicle: Klucel (hydroxypropylcellulose) (HPC)) 113 % of control.
Take `S=C1SCCS1`: the T/C is, setting by setting: under setting [9], 100 % of control; under setting [10], 95 % of control; under setting [11], 104 % of control; under setting [7], 91 % of control.
For `O=C(CN1CC1)NCCCCCCCCNC(=O)CN1CC1`, the T/C is 200 % of control (dose: 12.5 mg/kg/injection, schedule: Q01DX009 (ip), vehicle: saline with Tween-80); 259 % of control under setting [9]; 190 % of control (dose: 33.0 mg/kg/injection, schedule: Q04DX003 (ip), vehicle: saline with Tween-80); 86 % of control under setting [10]; 209 % of control (dose: 50.0 mg/kg/injection, schedule: Q04DX003 (ip), vehicle: saline with Tween-80); 245 % of control (dose: 75.0 mg/kg/injection, schedule: Q04DX003 (ip), vehicle: saline with Tween-80).
Consider `CCn1c2ccccc2c2cc(NC(=O)Nc3ccc([N+](=O)[O-])cc3C)ccc21`, for which the T/C by setting is: under setting [10], 100 % of control; under setting [11], 91 % of control; under setting [12], 91 % of control.
Take `O=C(NCCc1c[nH]c2ccccc12)c1cccnc1`: the T/C was 104 % of control (dose: 100.0 mg/kg/injection, schedule: Q01DX001 (ip), vehicle: saline); 100 % of control (dose: 200.0 mg/kg/injection, schedule: Q01DX001 (ip), vehicle: saline); 95 % of control (dose: 400.0 mg/kg/injection, schedule: Q01DX001 (ip), vehicle: saline).
On to `C=CCN(CC=C)C(=O)CCN1CC1`, for which the T/C runs as follows: (dose: 1.25 mg/kg/injection, schedule: Q01DX009 (ip), vehicle: saline) 95 % of control; (dose: 2.5 mg/kg/injection, schedule: Q01DX009 (ip), vehicle: saline) 100 % of control; (dose: 5.0 mg/kg/injection, schedule: Q01DX009 (ip), vehicle: saline) 112 % of control.
As to `O=C(O)CC(O)(CC(=O)O)C(=O)O.[Ga]`, the T/C reads like this: under setting [13], 114 % of control; (dose: 112.5 mg/kg/injection, schedule: Q01DX009 (ip), vehicle: saline) 90 % of control; (dose: 132.0 mg/kg/injection, schedule: Q04DX003 (ip), vehicle: saline) 115 % of control; under setting [8], 110 % of control; (dose: 300.0 mg/kg/injection, schedule: Q04DX003 (ip), vehicle: saline) 110 % of control.
As to `CC1(c2cccs2)C(=O)N(Cl)C(=O)N1Cl` (configuration not stated), the T/C is 100 % of control (dose: 12.5 mg/kg/injection, schedule: Q04DX003 (ip), vehicle: saline); 100 % of control under setting [3]; 122 % of control under setting [4]; 118 % of control under setting [5]; 119 % of control under setting [6]; 107 % of control and 109 % of control and 118 % of control under setting [7]. The T/C reads like this: under setting [14], 120 % of control; under setting [8], 118 % of control.
For the compound `CSCCCNC(=O)c1csc(-c2csc(CCNC(=O)C(F)(F)F)n2)n1`, the T/C was 103 % of control under setting [10], 114 % of control under setting [11] and 87 % of control under setting [12].
`Nc1c(Br)cc2c(c1Br)Cc1cc(Cl)ccc1-2`: the T/C was 100 % of control (dose: 6.0 mg/kg/injection, schedule: Q04DX003 (ip), vehicle: Klucel (hydroxypropylcellulose) (HPC)); 100 % of control (dose: 12.0 mg/kg/injection, schedule: Q04DX003 (ip), vehicle: Klucel (hydroxypropylcellulose) (HPC)); 100 % of control (dose: 25.0 mg/kg/injection, schedule: Q01DX009 (ip), vehicle: Klucel (hydroxypropylcellulose) (HPC)); 100 % of control (dose: 25.0 mg/kg/injection, schedule: Q04DX003 (ip), vehicle: Klucel (hydroxypropylcellulose) (HPC)); 87 % of control and 90 % of control and 100 % of control (dose: 50.0 mg/kg/injection, schedule: Q01DX009 (ip), vehicle: Klucel (hydroxypropylcellulose) (HPC)); 90 % of control (dose: 50.0 mg/kg/injection, schedule: Q04DX003 (ip), vehicle: Klucel (hydroxypropylcellulose) (HPC)). Besides, the T/C by setting is: (dose: 200.0 mg/kg/injection, schedule: Q04DX003 (ip), vehicle: Klucel (hydroxypropylcellulose) (HPC)) 118 % of control; (dose: 400.0 mg/kg/injection, schedule: Q04DX003 (ip), vehicle: Klucel (hydroxypropylcellulose) (HPC)) 95 % of control and 104 % of control.
For `CCCCCOC(CN)C(Cl)(Cl)Cl` (configuration not stated), the T/C runs as follows: under setting [2], 115 % of control; (dose: 33.0 mg/kg/injection, schedule: Q01DX009 (ip), vehicle: saline) 100 % of control and 118 % of control; under setting [4], 113 % of control and 122 % of control; under setting [13], 109 % of control.
Turning to `CC1CCCCN1CCNc1ccc(CO)c2sc3ccccc3c(=O)c12` (configuration not stated), the T/C is 115 % of control under setting [9]; 119 % of control (dose: 44.0 mg/kg/injection, schedule: Q01DX009 (ip), vehicle: saline with Tween-80); 119 % of control under setting [10]; 192 % of control and 210 % of control under setting [11]; 278 % of control (dose: 150.0 mg/kg/injection, schedule: Q01DX009 (ip), vehicle: saline with Tween-80); 97 % of control under setting [12].
On to `CCCCCCCCCCCCCCCCCC[N+](C)(C)C`, for which the T/C reads like this: (dose: 1.56 mg/kg/injection, schedule: Q04DX003 (ip), vehicle: saline) 115 % of control; (dose: 3.12 mg/kg/injection, schedule: Q04DX003 (ip), vehicle: saline) 115 % of control; (dose: 4.12 mg/kg/injection, schedule: Q01DX009 (ip), vehicle: saline) 115 % of control; under setting [1], 90 % of control; (dose: 6.25 mg/kg/injection, schedule: Q04DX003 (ip), vehicle: saline) 120 % of control; (dose: 9.2 mg/kg/injection, schedule: Q04DX003 (ip), vehicle: saline) 104 % of control. Besides, the T/C (dose: 14.0 mg/kg/injection, schedule: Q04DX003 (ip), vehicle: saline) was 100 % of control and the T/C (dose: 21.0 mg/kg/injection, schedule: Q04DX003 (ip), vehicle: saline) is 90 % of control.
With `CC(N)C(=O)O` (configuration not stated), the T/C is, setting by setting: under setting [6], 91 % of control; under setting [7], 88 % of control; under setting [14], 108 % of control; under setting [8], 100 % of control; (dose: 400.0 mg/kg/injection, schedule: Q01DX009 (ip), vehicle: saline) 100 % of control.
